What was measured:
[1] = tested on: DN32 cells (NKT cell line) co-cultured with CD1d transfected T84D cells; assay: CD1d-restricted NKT cell activation (T84D/DN32 co-culture, IL-2 ELISA); format: cell-based, murine; settings: for CD1d dependent NKT cell activation (IL-2 present in the supernatants): solvent control, PI or myo-inositol, FIG. 2
Description: (§1) A CD1d transfected epithelial cell line T84D was pulsed with alpha-GalactosylCeramide and co-cultured with PI at different concentrations. NKT cell activation was determined by measurement of IL-2 present in the supernatants. FIG. 2: Phosphatidyl-inositol but not myo-inositol blocks CD1d dependent NKT cell activation. A CD1d transfected epithelial cell line T84D was pulsed with a GalactosylCeramide and co-cultured with either solvent control, PI or myo-inositol. NKT cell activation was determined by measurement of IL-2 present in the supernatants. FIG. 3: Differential effect of PI and PS on cellular viability and immune suppression. T cells were suspended at 10^6 cells/ml in 24-wells plates (1 ml suspension per well). Cells were either left untreated (PMA 0 Cal 0) or activated with 5 ng/ml PMA +0.1 μg/ml calcium ionophore A23187 (PMA 5 ng/ml Cal 0.1 ug/ml) in the presence of PI or PS at the indicated concentrations (expressed in pg/ml). Panel A: Following a 24 hour incubation period in the presence of the indicated lipids and stimuli cellular viability was measured using flow cytometric detection of 7-AAD stained cells. […] FIG. 4: IPL strongly affects early survival in oxazolone colitis model. For experimental details see Example 2A. FIG. 5: Suppression of IL-2 production by intestinal T cells upon IPL intrarectal treatment of oxazolone-colitis mice. Mice were treated with saline (group A) or PI (group B) twenty minutes prior to challenge with oxazolone to induce colitis. Mice were sacrificed and intestinal T cells were analyzed for IL-2 production upon stimulation by aCD3/aCD28 during a period of 48 hours (panel A) or 72 hours (panel B). […] C Histopathology of the whole colon was assessed by blindly scoring each separate field of view at a 4× magnification by means of a TNBS score. […]
On day 0, T84D cells (a human epithelial cell line transfected with CD1d) were incubated overnight with a GalCer (10 mg/ml). […] Supernatants were collected and IL-2 cytokine production by DN32 (reflecting T cell activation) was determined by means of ELISA.

[2] = Observation after intravenous PI; format: in vivo, mice; settings: 200 μl of PI 2 mg/ml (400 μg) intravenously, 3 hour observation period
Source text: It will be recognized by those skilled in the art that the optimal quantity and spacing of individual dosages for achieving the therapeutic effects of the pharmaceutical composition, food item or food supplement described herein may easily be determined by the skilled person. They will be determined by the nature and extent of the condition being treated, as well as by the form, route and site of administration, and the particular individual undergoing treatment, and that such optima can be determined by conventional techniques. Typically, the treatment will involve the administration of inositol phospholipid in amount of approximately 0.001 to 1 gram , preferably 0.005 to 0.5 gram, more preferably 0.01 to 0.1 gram per kilogram of body weight per 24 hours. It will also be appreciated by those skilled in the art that the optimal dosage regimen, i.e. the number of doses, can be ascertained using conventional course of treatment determination tests well known in the art. […] Generally speaking, a therapeutic dosing regimen will involve the administration of the selected dosage formulation comprising an inositol phospholipid, e.g. a PI aerosol spray, at least once daily, preferably one to four times daily, until the symptoms have subsided. Or given in times of remission, in order to prevent a disease flare-up (exacerbation). […]

OVA-induced asthma = assay: OVA asthma model, intra-tracheal PI; format: in vivo, mice; settings: PI intra-tracheally before OVA aerosol challenge
Description: On days one and eight male wildtype Balb/c mice (Charles Rivers) of 7-10 weeks old were sensitized by intra-peritoneal (i.p.) injection of 20 μg of OVA (Sigma), emulsified in 2.25 mg of alum (AlumImuject; Pierce). On days 15, 16 and 17 mice were sedated and received 80 μl of one of three solutions of PI (0 μg/ml, 200 μg/ml or 2 mg/ml) intra-tracheally (i.t). Subsequently the mice were challenged by 20 minutes of inhalation exposure to 60 μl of aerosols containing OVA (1% in saline). All three groups contained 8 mice. Mice were sacrificed at day 18.
Lungs were flushed with 3 ml saline and the cells in this Broncho Alveolar Lavage (BAL) were identified and quantified through FACS analysis. Subsequently the lungs were freeze-fixed, cut into 5 μm tissue sections and stained with May-Grunwald-Giemsa (MGG). The stained sections were examined for the presence of inflammatory cell infiltration such as eosinophils.

[3] = tested on: activated peripheral blood cells; settings: Caselli et al. 1992; cited from earlier work
TNBS colitis = TNBS colitis model, intraperitoneal PI; format: in vivo, mice
Description: Colitis was induced as described previously (Scheiffele, F. and Fuss, I J., 2001, Curr. Protocols Immunol. 15.19.1-15.19.14). In short, on day-7 SJL mice were sensitized epicutaneously with 150 μl 2.5% 2,4,6-trinitrobenzene sulfonic acid (TNBS; Sigma) in 50% ethanol. On day 0, mice were challenged, under anesthesia of isoflurane gas, by rectal administration of 150 μl 2.5% TNBS in 50% ethanol. Negative control mice were challenged with 50% ethanol only. […] Positive (TNBS treated) and negative (ethanol treated) control mice were treated with an intraperitoneal (i.p.) injection of 150 μl of saline at 0, 12, 24, 36, 48 and 60 h. The PI treatment group was treated with […] of 5 mg/ml PI suspended in saline at the same time points. Mice were weighted at 0, 12, 24, 36, 48 and 60 h and were sacrificed at 60 h. Colonic tissue was folded into Swiss rolls, fixed in 4% natural buffered formalin solution and embedded in paraffin. Sections of 5 μm thickness were generated, stained with hematoxylin (Vector Laboratories) and eosin (Sigma) and analyzed by microscopy. Histology was quantified by scoring each separate field of view at a 4× magnification from distal to proximal by means of a previously described TNBS scoring system (Scheiffele, F. and Fuss, I J., 2001, Curr. Protocols Immunol. 15.19.1-15.19.14). Single cell suspensions were made of iliac lymph nodes (ILNs) and mesenteric lymph nodes (MLNs) by sieving trough an 80 μm filter and subsequently lymphocytes were cultured and stimulated with 2 μg/ml anti-CD3 and 2 μg/ml anti-CD28 antibodies. After 48 h of culture the supernatant was collected and release of the pro-inflammatory cytokines IFN-γ and IL-17 (Zhang, Z. et al., 2006, Inflamm. Bowel Dis., 12:382-388) and the anti-inflammatory cytokine IL-10 were measured by means of ELISA (IL-17) or CBA (IFN-γ and IL-10).

T cells [4] = assay: Cellular viability of T cells (flow cytometric 7-AAD detection); format: cell-based; settings: FIG. 3A
Description: as §1, with “B). ALN=axillair LN; MLN=mediastinal LN; ILN=iliacal LN. For further details see Example 2A. FIG. 6: Treatment with IPL (non-liposomal aerosol) prevents the typical histo-pathological changes that are associated with an asthma mouse model. For experimental details see Example 2B.” for “B).”

oxazolone colitis = assay: Oxazolone colitis model, intra-rectal PI; format: in vivo, mice
Description: On day 0 male wild type black/6 mice (Charles Rivers) of 7-10 weeks old were sensitized epicutaneously with 150 μl 3% 4-ethoxymeyhylene-2-phenyl-oxazolin-5-one (oxazolone; Sigma) in 100% ethanol. At day 5, mice were challenged, under anesthesia of ketamine (80 mg/kg) and xylazine (10 mg/kg), by rectal administration of 100 μl 2% oxazolone in aqueous ethanol (50%). Twenty minutes prior to challenge mice were treated intra-rectally with 100 μl saline (control) or PI (2 mg/ml). All […] groups contained 8 mice. Mice were weighted at day 5, 6, 7, and 8 and were sacrificed at day 8.
Colonic tissue was fixed with 4% natural buffered formalin solution, embedded in paraffin, cut into 5μ tissue sections, and stained with hematoxylin and eosin (H&E). Using a score that has been described previously for oxazolone colitis (REF), the stained sections were examined for evidence of colitis. Spleen, axillary lymph nodes (ALN), mesenteric lymph nodes (MLN) and iliacal lymph nodes (ILN) were isolated and stimulated ex-vivo with either PBS (control) or with aCD3/aCD28 (100 μl of 2 μg/ml each) in IMDM medium. After 48 and 72 hours, the production of IL-2 was measured by means of ELISA (Beckton & Dickinson).

T cells [5] = assay: T cell activation measured by IL-2 cytokine production; format: cell-based; settings: for T cell activation measured by IL-2 cytokine production: PMA + calcium ionophore A23187
Description: as §1, with “B). ALN=axillair LN; MLN=[…] LN; ILN=iliacal LN. For further details see Example 2A. FIG. 6: Treatment with IPL (non-liposomal aerosol) prevents the typical histo-pathological changes that are associated with an asthma mouse model. For experimental details see Example 2B. FIG. 7: Treatment with PI (aerosol) prevents the eosinophilia that is associated with an asthma mouse model. For experimental details see Example 2B. FIG. 8: effects of intraperitoneal injection of PI in the TNBS colitis model. […] B The percentage of weight during TNBS colitis is shown. Each dot represents the mean of weights of each group per 0.5 day. Error bars indicate the standard error of the mean. Asterisks indicate significant differences (p<0.05) between TNBS treated mice that received i.p. injections of PI and saline.” for “B).”

[6] = anti-CD3/anti-CD28 re-stimulation, 48 h, vs saline treated group, p<0.05, FIG. 8D
[7] = 24 hour incubation, untreated or 5 ng/ml PMA + 0.1 μg/ml A23187

## O[C@H]1[C@H](O)[C@@H](O)[C@H](O)[C@@H](O)[C@H]1O [myo-inositol, reference compound]
[1]
  CD1d dependent NKT cell activation (IL-2 present in the supernatants): no significant suppressive effect

## phosphatidyl inositol [PI]
[2]
  symptoms or adverse signs: did not show any symptoms or adverse signs
OVA-induced asthma; FIG. 6
  histopathological changes of the lungs: reduces
OVA-induced asthma; FIG. 7
  influx of eosinophils (BAL): strongly inhibits
[3]
  DNA synthesis in activated peripheral blood cells: only partially effective
[1]; T84D pulsed with alpha-GalactosylCeramide, PI at different concentrations, FIG. 1
  NKT cell activation (IL-2 present in the supernatants): Dose-dependent inhibition
[1]
  CD1d dependent NKT cell activation (IL-2 present in the supernatants): blocks
TNBS colitis; PI 5 mg/ml i.p. every 12 h vs saline, FIG. 8A
  general appearance (fur, behavior): appeared less diseased
TNBS colitis; PI i.p. vs control saline treatment, FIG. 8B
  weight loss: dramatic reduction in weight loss
TNBS colitis; PI i.p., saline treated mice did not re-gain weight, FIG. 8B
  start of weight recovery: 1.5 days
TNBS colitis; anti-CD3/anti-CD28 re-stimulation, 48 h, vs saline treated group, FIG. 8D
  IL-10 production: no difference
TNBS colitis; [6]
  IFN-γ production by MLNs: significantly less production
  IL-17 production by ILNs and MLNs: significantly less production
TNBS colitis; day 3, field of view number 5, FIG. 8C
  colon histology (TNBS score): near normal histology
T cells [4]; [7]
  cellular viability: does not significantly affect cellular viability
T cells [4]; up to the highest dose tested (100 μg/ml)
  cellular viability: does not affect cellular viability
Oxazolone colitis; 100 μl PI 2 mg/ml intra-rectally 20 min prior to oxazolone challenge
  weight loss: diminished weight loss
Oxazolone colitis; 100 μl PI 2 mg/ml intra-rectally 20 min prior to oxazolone challenge, FIG. 4
  survival: increased survival
Oxazolone colitis; aCD3/aCD28 stimulation, 48 and 72 hours, FIG. 5
  IL-2 production upon ex-vivo stimulation of intestinal T cells: suppressed
T cells [5]; FIG. 3B
  T cell activation measured by IL-2 cytokine production: inhibitory effect
T cells [5]; data not shown
  reversibility of the suppressive effect: reversible
T cells [5]; phorbol ester and calcium ionophore, or stimulation of CD3 and CD28, FIG. 3B
  T cell activation: directly inhibit

## phosphatidyl serine [PS, reference compound]
[3]
  DNA synthesis in activated peripheral blood cells: inhibition
T cells [4]; [7]
  cellular viability: toxic for activated cells in a dose-dependent manner
T cells [5]; FIG. 3B
  T cell activation measured by IL-2 cytokine production: stimulatory effect

— patent publication US20090176741A1, “MODULATION OF THE IMMUNE SYSTEM BY INOSITOL PHOSPHOLIPIDS” (priority 2006, published 2009)
